Measured values reported in patent US20200131495A1, “PROTEINS DERIVED FROM CLPB AND USES THEREOF” (priority 2017, published 2020).

Assays:
[1] = molecular target: MC1R (Mus musculus, UniProt Q01727); details: Ericson et al., 2015; cited from earlier work
[2] = molecular target: MC3R (Mus musculus, UniProt P33033); details: Ericson et al., 2015; cited from earlier work
[3] = molecular target: MCSR (Mus musculus, UniProt P41149); details: Ericson et al., 2015; cited from earlier work
[4] = molecular target: MC4R (Mus musculus, UniProt P56450); details: Ericson et al., 2015; cited from earlier work
[5] = test system: intestinal tissues from rats (colons and ileums); assay: PYY secretion experiment in rat colons and ileums; assay type: cell-based; details: 10 nM, 20 min, control PBS, FIG. 6
Method: Colons and ileums were removed from male rats (Janvier Labs, Genest-Saint-Isle, France). They were washed with ice-cold PBS, then with ice-cold L-15 (Leibowitz) medium (PAA, Yeovil, UK). Then they were digested with 0.4 mg/mL collagenase XI (Sigma, Poole, UK) in High-Glucose DMEM (+1% L-Glutamine+1% Penicillin+1% Streptomycin+1% and non-essential amino acids) at 37° C. during 10 min. Cells suspensions were centrifuged (10 min at 400 g) and the pellets were resuspended in High-Glucose DMEM (the same that previously but with 10% Fetal Bovine Serum (FBS). Cell suspensions were filtered through a nylon mesh (pore size 100 Jpm) (Merck Millipore, Mass., USA) and plated onto 24 well, 1% Matrigel-coated plates (Corning, N.Y., US). The plates were incubated overnight at 37° C. in an atmosphere of […] and 5% CO2.
After 24 hours of culture, cells were incubated for 20 min in a water bath with secretion buffer (4 mM KCl, 138 mM NaCl, 1.2 mM NaHCO3, 1.2 mM NaH2PO4, 2.6 mM CaCl2), 1.2 mM MgCl2 and 10 mM HEPES) adjusted at pH 7.4) and full-length ClpB or the ˜25 kDa fragment at a concentration of 10 nM. […]
After incubation, the cells were treated with lysis buffer (50 mmol/L Tris-HCl, 150 mmol/L NaCl, 1% IGEPAL CA-630, 0.5% deoxycholic acid+cocktail of protease inhibitor tablets complete without EDTA) to extract intracellular peptides. […] Lysates were stored at −80° C. if not analyzed immediately. […]

[6] = Food intake of mice in BioDAQ cages after i.p. or oral administration; assay type: in vivo; details: for food intake in mice, oral administration: 60 pmol in 200 μL, FIG. 8
Method: Male C57/B16 mice were placed in the BioDAQ mouse cages (Research Diets, Inc., New Brunswick, N.J.) alone to measure the food intake. Each mouse was administered either physiological serum (n=6), full-length ClpB, or fragment of ˜25 kDa.
Two modes of administration were tested: intraperitoneal (i.p.) injection at a concentration of 2 pmol in a volume of 200 μL (n=8), and oral administration at a concentration of 60 pmol in a volume of 200 μL (n=10).

[7] = test system: anti-α-MSH antibody; assay: Western blot revealed with anti-α-MSH antibody; assay type: binding, rabbit; details: FIG. 3 (trypsinised ClpB); FIG. 4 (colic mucosa, hypothalamus, plasma of mice and rats)
Method: First the fragmentation was performed on different conditions: ClpB diluted at 1/10 (from the stock at 5 mg/mL) and ClpB 1/10 with 0.0025% trypsin. Those different conditions were placed during 20 minutes at 37° C. After incubation, the fragmentation was immediately stopped by placing tubes on ice and western blot was performed.
After fragmentation, Leamli solution without J-mercaptoethanol was added into tubes to perform western on 20% acrylamide SDS gel in Tris-Glycine buffer (BioRad, Hercules, USA) and transferred to a nitrocellulose membrane (GE Healthcare, Orsay, France). Then, the membrane was blocked for at least 1 h at room temperature with 5% (w/v) non-fat dry milk in TBS (10 mmol/L Tris, pH 8; 150 mmol/L NaCl) plus 0.05% (w/v) Tween 20. After blocking, the […] The membrane was incubated overnight at 4° C. with rabbit polyclonal anti-α-MSH antibodies (1:1000, Phoenix Pharmaceuticals). After three washes in a blocking solution of 5% (w/v) non-fat dry milk in TBS/0.05% Tween 20, membranes were incubated for 1 h with peroxidase-conjugated anti rabbit IgG (1:1000, SantaCruz Biotechnology). […]
Tissues were incubated with extracted buffer (PBS+protease inhibitor (1%)). The volume added depends of sample quantity. […] The supernatant was stored at −80° C. if not analysed immediately. […]

MC4R, sequence (P56450 whole entry): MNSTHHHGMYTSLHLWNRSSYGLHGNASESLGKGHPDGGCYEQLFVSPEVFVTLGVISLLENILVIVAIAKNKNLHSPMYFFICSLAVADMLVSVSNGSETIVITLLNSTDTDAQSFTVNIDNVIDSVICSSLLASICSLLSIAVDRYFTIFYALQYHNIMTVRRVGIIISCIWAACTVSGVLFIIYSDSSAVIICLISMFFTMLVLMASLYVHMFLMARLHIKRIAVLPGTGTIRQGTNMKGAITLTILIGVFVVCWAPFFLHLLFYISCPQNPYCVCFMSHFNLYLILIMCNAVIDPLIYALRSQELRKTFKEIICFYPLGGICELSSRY
MC3R, sequence (P33033 whole entry): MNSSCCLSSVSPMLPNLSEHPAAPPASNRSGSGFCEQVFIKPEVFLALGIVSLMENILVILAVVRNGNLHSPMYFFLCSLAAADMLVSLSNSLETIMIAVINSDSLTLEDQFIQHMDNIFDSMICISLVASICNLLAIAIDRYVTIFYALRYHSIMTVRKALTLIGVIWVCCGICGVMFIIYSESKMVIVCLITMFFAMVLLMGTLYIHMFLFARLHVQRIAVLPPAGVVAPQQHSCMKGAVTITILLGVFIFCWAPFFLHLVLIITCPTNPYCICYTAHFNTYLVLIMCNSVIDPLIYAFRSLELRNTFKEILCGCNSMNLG
MC1R, sequence (Q01727 whole entry): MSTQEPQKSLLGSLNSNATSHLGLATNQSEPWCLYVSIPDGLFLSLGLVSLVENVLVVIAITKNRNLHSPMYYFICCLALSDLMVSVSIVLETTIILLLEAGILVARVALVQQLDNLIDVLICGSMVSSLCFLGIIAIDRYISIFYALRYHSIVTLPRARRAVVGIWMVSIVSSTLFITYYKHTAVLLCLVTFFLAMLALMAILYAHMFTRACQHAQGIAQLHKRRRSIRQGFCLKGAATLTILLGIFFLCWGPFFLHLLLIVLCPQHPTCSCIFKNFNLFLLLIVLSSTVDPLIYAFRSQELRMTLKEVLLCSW
MCSR, sequence (P41149 whole entry): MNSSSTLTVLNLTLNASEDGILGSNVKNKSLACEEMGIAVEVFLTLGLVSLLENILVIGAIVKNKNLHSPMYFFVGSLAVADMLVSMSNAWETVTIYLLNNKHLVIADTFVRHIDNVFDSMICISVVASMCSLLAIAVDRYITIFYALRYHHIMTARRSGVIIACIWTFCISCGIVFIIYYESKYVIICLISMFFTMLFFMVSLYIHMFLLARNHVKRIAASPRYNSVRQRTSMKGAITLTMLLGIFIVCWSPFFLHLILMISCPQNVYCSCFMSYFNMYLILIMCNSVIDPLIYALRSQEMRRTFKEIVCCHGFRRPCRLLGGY

Substance: AEIAEVLARWTGIPV (ClpB fragment) [modified short ClpB fragment studied by Ericson et al]
- MC1R agonist activity [1]: full micromolar MC1R agonist
- activity on MC3R [2]: partial activities
- activity on MCSR [3]: partial activities
- activity on MC4R [4]: not on MC4R

Substance: fragment of ˜25 kDa: sequence of ClpB from amino acid 537 to amino acid 756 (SEQ ID NO: 22), produced by trypsinisation of ClpB
- PYY secretion compared to the control [5]: increase PYY secretion
- duration of the decrease of food intake ([6]; i.p. 2 pmol and oral 60 pmol in 200 μL, FIGS. 7 and 8): at least 90 min
- food intake in mice ([6]; i.p. 2 pmol and oral 60 pmol in 200 μL, FIGS. 7 and 8, compared with full-length ClpB protein): decreases food intake in mice at least as much as the full-length ClpB protein
- food intake in mice, oral administration [6]: decreases food intake
- recognition by anti-α-MSH antibodies (Western blot) [7]: revealed with polyclonal anti-α-MSH

Substance: full-length ClpB: chaperone protein ClpB (caseinolytic protease B), ˜96 kDa, 857 amino acids, from E. Coli K12
- PYY secretion compared to the control [5]: increase PYY secretion
- food intake in mice, oral administration [6]: no such effect
